Source: ChEMBL document CHEMBL3286168, “Synthesis of 2'-O,4'-C-alkylene-bridged ribonucleosides and their evaluation as inhibitors of HCV NS5B polymerase” (Bioorg Med Chem Lett, 2014)

Assays:
[1] = Inhibition of purified wild type Hepatitis C virus 1b NS5B polymerase; set-up: species or system Hepatitis C virus subtype 1b
[2] = biological target: RNA-directed RNA polymerase (Hepacivirus hominis, UniProt O39930, S282T); experiment: Inhibition of purified Hepatitis C virus NS5B polymerase S282T mutant; set-up: species or system Hepatitis C virus subtype 1b
Hepatitis C virus = experiment: Antiviral activity against wild type Hepatitis C virus genotype 1b infected in human HuH7 cells after 72 hrs by luciferase reporter gene assay; format: functional, cell-based, Hepacivirus hominis; details: Huh-7, 72 h
[3] = Cytotoxicity against human HuH7 cells up to 100 uM after 3 hrs by CellTiter-Blue cell viability assay; format: cell-based; details: huh-7, 3 h
[4] = Inhibition of purified wild type Hepatitis C virus 1a NS5B polymerase; set-up: species or system Hepatitis C virus subtype 1a
[5] = Inhibition of purified wild type Hepatitis C virus 2a NS5B polymerase; set-up: species or system Hepatitis C virus subtype 2a
[6] = Inhibition of purified wild type Hepatitis C virus 3a NS5B polymerase; set-up: species or system Hepatitis C virus subtype 3a
[7] = Inhibition of purified wild type Hepatitis C virus 4a NS5B polymerase; set-up: species or system Hepatitis C virus subtype 4a
[8] = test system: Hepatitis C virus subtype 1b; experiment: Selectivity ratio of IC50 for Hepatitis C virus NS5B polymerase S282T mutant to wild type Hepatitis C virus 1b NS5B polymerase

RNA-directed RNA polymerase, sequence (O39930 entry or part of it S282T): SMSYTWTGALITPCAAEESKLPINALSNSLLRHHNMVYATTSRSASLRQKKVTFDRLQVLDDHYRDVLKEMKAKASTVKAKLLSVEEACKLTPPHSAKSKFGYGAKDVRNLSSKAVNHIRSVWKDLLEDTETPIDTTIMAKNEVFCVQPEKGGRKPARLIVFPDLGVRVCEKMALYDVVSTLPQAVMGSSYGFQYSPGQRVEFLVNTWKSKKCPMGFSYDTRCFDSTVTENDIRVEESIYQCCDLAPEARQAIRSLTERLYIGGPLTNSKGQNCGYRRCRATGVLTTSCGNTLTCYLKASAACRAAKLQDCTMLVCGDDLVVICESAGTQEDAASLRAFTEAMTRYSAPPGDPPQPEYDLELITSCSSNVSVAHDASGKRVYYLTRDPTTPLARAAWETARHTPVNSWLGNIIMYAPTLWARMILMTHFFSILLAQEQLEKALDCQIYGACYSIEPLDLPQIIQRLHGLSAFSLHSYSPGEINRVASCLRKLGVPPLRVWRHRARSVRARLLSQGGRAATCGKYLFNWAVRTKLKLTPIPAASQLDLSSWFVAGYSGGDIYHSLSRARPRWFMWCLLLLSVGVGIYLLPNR

Q: Which IC50 [1] does the source give for `CC(OP(=O)(O)OP(=O)(O)OP(=O)(O)O)[C@@]12CO[C@@H]([C@H](n3cnc4c(=O)[nH]c(N)nc43)O1)[C@@H]2O` (stereo in doubt; form 1) here?
A: 15.9 µM

Q: What about the IC50 [2] of the same compound?
A: 25.1 µM

Q: With `CC(O)[C@@]12CO[C@@H]([C@H](n3cnc4c(=O)[nH]c(N)nc43)O1)[C@@H]2O` (mixture of isomers) as the compound, how does the EC50 (Hepatitis C virus) read?
A: > 50 µM

Q: What about the Activity [3] of the same compound?
A: Non-toxic

Q: For `CC(OP(=O)(O)OP(=O)(O)OP(=O)(O)O)[C@@]12CO[C@@H]([C@H](n3cnc4c(=O)[nH]c(N)nc43)O1)[C@@H]2O` (stereo in doubt; form 2), which IC50 [1] is on record?
A: > 100 µM

Q: And the IC50 [2]?
A: > 100 µM

Q: With `Nc1ncnc2c1ncn2[C@@H]1O[C@@]2(CO)CO[C@@H]1[C@@H]2O` as the compound, how does the EC50 (Hepatitis C virus) read?
A: > 50 µM

Q: What about the Activity [3] of the same compound?
A: Non-toxic

Q: What does the source list for `Nc1ncnc2c1ncn2[C@@H]1O[C@@]2(COP(=O)(O)OP(=O)(O)OP(=O)(O)O)CO[C@@H]1[C@@H]2O`?
A: IC50 [1]: 39.8 µM; IC50 [2]: 86.3 µM

Q: With `Nc1ccn([C@@H]2O[C@@]3(CO)CO[C@@H]2[C@@H]3O)c(=O)n1` as the compound, how does the EC50 (Hepatitis C virus) read?
A: > 50 µM

Q: And the Activity [3]?
A: Non-toxic

Q: What does the source list for `Nc1ccn([C@@H]2O[C@@]3(COP(=O)(O)OP(=O)(O)OP(=O)(O)O)CO[C@@H]2[C@@H]3O)c(=O)n1`?
A: IC50 [1]: 1.39 µM; IC50 [2]: 1.44 µM

Q: What does the source list for `C[C@]12OC[C@](CO)(O[C@H]1n1cnc3c(=O)[nH]c(N)nc31)[C@H]2O`?
A: EC50 (Hepatitis C virus): > 50 µM; Activity [3]: Non-toxic

Q: With `Nc1nc2c(ncn2[C@@H]2O[C@@]3(COP(=O)(O)OP(=O)(O)OP(=O)(O)O)CO[C@@H]2[C@@H]3O)c(=O)[nH]1` as the compound, how does the IC50 [1] read?
A: 0.39 µM

Q: What about the IC50 [2] of the same compound?
A: 0.38 µM

Q: What about the IC50 [4] of the same compound?
A: 0.37 µM

Q: What about the IC50 [5] of the same compound?
A: 0.29 µM

Q: And the IC50 [6]?
A: 0.2 µM

Q: And the IC50 [7]?
A: 0.31 µM

Q: Which results are given for `Nc1nc2c(ncn2[C@@H]2O[C@@]3(CO)CO[C@@H]2[C@@H]3O)c(=O)[nH]1`?
A: EC50 (Hepatitis C virus): > 50 µM; Activity [3]: Non-toxic

Q: For `C[C@]12OC[C@](COP(=O)(O)OP(=O)(O)OP(=O)(O)O)(O[C@H]1n1cnc3c(=O)[nH]c(N)nc31)[C@H]2O`, which IC50 [1] is on record?
A: 0.2 µM

Q: What about the IC50 [2] of the same compound?
A: 0.48 µM

Q: And the Ratio IC50 [8]?
A: 2

Q: For `Nc1nc2c(ncn2[C@@H]2O[C@@]3(COP(=O)(O)OP(=O)(O)OP(=O)(O)O)CCO[C@@H]2[C@@H]3O)c(=O)[nH]1`, which IC50 [1] is on record?
A: > 100 µM

Q: And the IC50 [2]?
A: > 100 µM

Q: For `O=c1ccn([C@@H]2O[C@@]3(COP(=O)(O)OP(=O)(O)OP(=O)(O)O)CO[C@@H]2[C@@H]3O)c(=O)[nH]1`, which IC50 [1] is on record?
A: 3.84 µM

Q: What about the IC50 [2] of the same compound?
A: 12.8 µM

Q: With `O=c1ccn([C@@H]2O[C@@]3(CO)CO[C@@H]2[C@@H]3O)c(=O)[nH]1` as the compound, how does the EC50 (Hepatitis C virus) read?
A: > 50 µM

Q: And the Activity [3]?
A: Non-toxic

Q: Which EC50 (Hepatitis C virus) does the source give for `Nc1nc2c(ncn2[C@@H]2O[C@@]3(CO)CCO[C@@H]2[C@@H]3O)c(=O)[nH]1` here?
A: > 50 µM

Q: What about the Activity [3] of the same compound?
A: Non-toxic
